Results from US12371454B2, “Cyclic peptide compound having Kras inhibitory action” (priority 2019, dated 2025).
Starred links: 1 amine or outer side, 2 acyl side, 3 side chain; linkers in the order of their positions; H or OH if unused. Positions of bridges follow the written chain, without caps; N, C: chain ends. Non-standard residues stand in square brackets, D forms with d. Residues, ends and D or L forms follow the SMILES beside them. *: point of attachment. hPhe(3-Cl-4-CF3) = N[C@@H](CCc1ccc(C(F)(F)F)c(Cl)c1)C(=O)O; hPhe(3-F,4-CF3) = N[C@@H](CCc1ccc(C(F)(F)F)c(F)c1)C(=O)O; NMePhe(4-CF3) = CN[C@@H](Cc1ccc(C(F)(F)F)cc1)C(=O)O; Pro(cis-4-Ph) = O=C(O)[C@@H]1C[C@H](c2ccccc2)CN1; 3Oxa8azabicyclo(3.2.1)octane = C1CC2COCC1N2*; NMePhe(4-F) = CN[C@@H](Cc1ccc(F)cc1)C(=O)O; NMedβ3hAla = C[C@H](CC(=O)[*:2])N(C)[*:1]; NMeGly(cPent) = CN[C@H](C(=O)O)C1CCCC1; Pro(4,4-F2) = O=C(O)[C@@H]1CC(F)(F)CN1; NMeCha = CN[C@@H](CC1CCCCC1)C(=O)O; NMeAhp(2) = CCCCC[C@H](NC)C(=O)O; NMeChg = CN[C@H](C(=O)O)C1CCCCC1; NMeI = CC[C@H](C)[C@H](NC)C(=O)O; NMeD = CN[C@@H](CC(=O)O)C(=O)O; NMeL = CN[C@@H](CC(C)C)C(=O)O; NMehSer = CN[C@@H](CCO)C(=O)O; NMeV = CN[C@H](C(=O)O)C(C)C; Trifluoroethyl = FC(F)(F)C*; d(β3hA) = C[C@@H](N)CC(=O)O; Azetidin(1-yl) = C1CN(*)C1; NMeS = CN[C@@H](CO)C(=O)O; Pip = O=C(O)[C@@H]1CCCCN1; Morpholide = C1CN(*)CCO1; NMeA = CN[C@@H](C)C(=O)O; NMeAib = CNC(C)(C)C(=O)O; Piperidide = C1CCN(*)CC1; Pyrrolidide = C1CCN(*)C1; Ac5c = NC1(C(=O)O)CCCC1; Aze = O=C(O)[C@@H]1CCN1; Sar = CNCC(=O)O; Propyl = CCC*

The compounds below were run on Human pancreatic cancer cell line AsPC-1 (assay: Measurement of AsPC-1 cell growth inhibition (AsPC-1 CGI)). Details: 96 h.
Assay type: cell-based
Summary of the method: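 AsPC-1 cells in 15% FBS RPMI-1640 were exposed to test compound for 96 hours at 37° C, with CellTiter-Glo as endpoint.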

| SMILES | IC50 [nM] |
| --- | --- |
| CC[C@H](C)[C@@H]1NC(=O)[C@H](CC(C)C)N(C)C(=O)C[C@@H](C(=O)N2CCCCC2)N(C)C(=O)[C@H](C2CCCCC2)N(C)C(=O)C2(CCCC2)NC(=O)[C@@H]2CCCN2C(=O)[C@H](CCc2ccc(C(F)(F)F)c(Cl)c2)NC(=O)CN(C)C(=O)[C@H](CC2CCCCC2)N(C)C(=O)[C@@H]2CCN2C(=O)[C@H](C)N(C)C1=O [Compound 249] ([NMeL]I[NMeA][Aze][NMeCha][Sar][hPhe(3-Cl-4-CF3)]P[Ac5c][NMeChg][NMeD]-Piperidide; lactam N-11) | 100 to 500 |
| CC[C@H](C)[C@@H]1NC(=O)[C@H](CC(C)C)N(C)C(=O)C[C@@H](C(=O)N2CCC2)N(C)C(=O)[C@H](C(C)C)N(C)C(=O)C2(CCCC2)NC(=O)[C@@H]2CCCN2C(=O)[C@H](CCc2ccc(C(F)(F)F)c(Cl)c2)NC(=O)CN(C)C(=O)[C@H](CC2CCCCC2)N(C)C(=O)[C@@H]2CCN2C(=O)[C@H](C)N(C)C1=O [Compound 256] ([NMeL]I[NMeA][Aze][NMeCha][Sar][hPhe(3-Cl-4-CF3)]P[Ac5c][NMeV][NMeD]-{Azetidin(1-yl)}; lactam N-11) | 100 to 500 |
| CCCCC[C@H]1C(=O)N[C@@H]([C@@H](C)CC)C(=O)N[C@@H](C)C(=O)N2CC[C@H]2C(=O)N(C)[C@@H](CC2CCCCC2)C(=O)N(C)CC(=O)N[C@@H](CCc2ccc(C(F)(F)F)c(Cl)c2)C(=O)N2CCC[C@H]2C(=O)NC2(CCCC2)C(=O)N(C)[C@@H](C2CCCC2)C(=O)N(C)[C@H](C(=O)N2CCOCC2)CC(=O)N1C [Compound 263] ([NMeAhp(2)]IA[Aze][NMeCha][Sar][hPhe(3-Cl-4-CF3)]P[Ac5c][NMeGly(cPent)][NMeD]-Morpholide; lactam N-11) | 20 to 50 |
| CC[C@H](C)[C@@H]1NC(=O)[C@H](CC(C)C)N(C)C(=O)C[C@@H](C(=O)N2CCCCC2)N(C)C(=O)[C@H](C2CCCCC2)N(C)C(=O)C2(CCCC2)NC(=O)[C@H](C)N(C)C(=O)[C@H](CCc2ccc(C(F)(F)F)c(Cl)c2)NC(=O)CN(C)C(=O)[C@H](CC2CCCCC2)N(C)C(=O)CN(C)C(=O)CN(C)C1=O [Compound 294] ([NMeL]I[Sar][Sar][NMeCha][Sar][hPhe(3-Cl-4-CF3)][NMeA][Ac5c][NMeChg][NMeD]-Piperidide; lactam N-11) | 100 to 500 |
| CC[C@H](C)[C@@H]1NC(=O)[C@H](CC(C)C)N(C)C(=O)C[C@@H](C(=O)N2CCCC2)N(C)C(=O)[C@H]([C@@H](C)CC)N(C)C(=O)C2(CCCC2)NC(=O)[C@@H]2CCCN2C(=O)[C@H](CCc2ccc(C(F)(F)F)c(F)c2)NC(=O)CN(C)C(=O)[C@H](C2CCCC2)N(C)C(=O)[C@@H]2CCN2C(=O)[C@H](C)N(C)C1=O [Compound 313] ([NMeL]I[NMeA][Aze][NMeGly(cPent)][Sar][hPhe(3-F,4-CF3)]P[Ac5c][NMeI][NMeD]-Pyrrolidide; lactam N-11) | 20 to 50 |
| CC[C@H](C)[C@@H]1NC(=O)[C@H](CC(C)C)N(C)C(=O)C[C@@H](C)N(C)C(=O)[C@H](C2CCCCC2)N(C)C(=O)C2(CCCC2)NC(=O)[C@@H]2CC(F)(F)CN2C(=O)[C@H](CCc2ccc(C(F)(F)F)c(Cl)c2)NC(=O)CN(C)C(=O)[C@H](Cc2ccc(C(F)(F)F)cc2)N(C)C(=O)[C@@H]2CCN2C(=O)[C@H](C)N(C)C1=O [Compound 319] (cyclo([Ac5c][NMeChg][NMedβ3hAla][NMeL]I[NMeA][Aze][NMePhe(4-CF3)][Sar][hPhe(3-Cl-4-CF3)][Pro(4,4-F2)])) | 100 to 500 |
| CC[C@H](C)[C@@H]1NC(=O)[C@H](C)N(C)C(=O)C[C@@H](C)N(C)C(=O)[C@H](C(C)C)N(C)C(=O)C(C)(C)N(C)C(=O)[C@@H]2CCCN2C(=O)[C@H](CCc2ccc(C(F)(F)F)c(Cl)c2)NC(=O)CN(C)C(=O)[C@H](CC2CCCCC2)N(C)C(=O)[C@@H]2CCN2C(=O)[C@H](C)N(C)C1=O [Compound 341] (cyclo([Aze][NMeCha][Sar][hPhe(3-Cl-4-CF3)]P[NMeAib][NMeV][NMedβ3hAla][NMeA]I[NMeA])) | 100 to 500 |
| CC[C@H](C)[C@@H]1NC(=O)[C@H](CC(C)C)N(C)C(=O)C[C@@H](C)N(C)C(=O)[C@H](C2CCCCC2)N(C)C(=O)C2(CCCC2)NC(=O)[C@@H]2CCCN2C(=O)[C@H](CCc2ccc(C(F)(F)F)c(Cl)c2)NC(=O)CN(C)C(=O)[C@H](Cc2ccc(C(F)(F)F)cc2)N(C)C(=O)[C@@H]2CCN2C(=O)[C@H](C)N(C)C1=O [Compound 348] (cyclo([Ac5c][NMeChg][NMedβ3hAla][NMeL]I[NMeA][Aze][NMePhe(4-CF3)][Sar][hPhe(3-Cl-4-CF3)]P)) | 100 to 500 |
| CC[C@H](C)[C@@H]1NC(=O)[C@H](CC(C)C)NC(=O)C[C@@H](C(=O)N2CCCCC2)N(C)C(=O)[C@H](C2CCCCC2)N(C)C(=O)C2(CCCC2)NC(=O)[C@@H]2CCCN2C(=O)[C@H](CCc2ccc(C(F)(F)F)c(Cl)c2)NC(=O)CN(C)C(=O)[C@H](CC2CCCCC2)N(C)C(=O)CN(C)C(=O)CN(C)C1=O [Compound 356] (LI[Sar][Sar][NMeCha][Sar][hPhe(3-Cl-4-CF3)]P[Ac5c][NMeChg][NMeD]-Piperidide; lactam N-11) | 100 to 500 |
| CCCOC[C@H]1C(=O)N(C)CC(=O)N[C@@H](CCc2ccc(C(F)(F)F)c(Cl)c2)C(=O)N2CCC[C@H]2C(=O)NC2(CCCC2)C(=O)N(C)[C@@H](C2CCCC2)C(=O)N(C)[C@H](C)CC(=O)N(C)[C@@H](CC(C)C)C(=O)N[C@@H]([C@@H](C)CC)C(=O)N(C)[C@@H](C)C(=O)N2CC[C@H]2C(=O)N1C [Compound 366] (cyclo([Ac5c][NMeGly(cPent)][NMedβ3hAla][NMeL]I[NMeA][Aze][NMeS](Propyl)[Sar][hPhe(3-Cl-4-CF3)]P)) | 20 to 50 |
| CC[C@H](C)[C@@H]1NC(=O)[C@H](CC(C)C)N(C)C(=O)C[C@@H](C)N(C)C(=O)[C@H](C2CCCC2)N(C)C(=O)C2(CCCC2)NC(=O)[C@@H]2CCCN2C(=O)[C@H](CCc2ccc(C(F)(F)F)c(F)c2)NC(=O)CN(C)C(=O)[C@H](C2CCCC2)N(C)C(=O)[C@@H]2CCN2C(=O)[C@H](C)N(C)C1=O [Compound 386] (cyclo([Ac5c][NMeGly(cPent)][NMedβ3hAla][NMeL]I[NMeA][Aze][NMeGly(cPent)][Sar][hPhe(3-F,4-CF3)]P)) | 20 to 50 |
| CC[C@H](C)[C@@H]1NC(=O)[C@H](COCC(F)(F)F)N(C)C(=O)C[C@@H](C(=O)N2CCCCC2)N(C)C(=O)[C@H](C(C)C)N(C)C(=O)C2(CCCC2)NC(=O)[C@@H]2CCCN2C(=O)[C@H](CCc2ccc(C(F)(F)F)c(Cl)c2)NC(=O)CN(C)C(=O)[C@H](CC2CCCCC2)N(C)C(=O)[C@@H]2CCN2C(=O)[C@H](C)N(C)C1=O [Compound 387] ([NMeS](Trifluoroethyl)I[NMeA][Aze][NMeCha][Sar][hPhe(3-Cl-4-CF3)]P[Ac5c][NMeV][NMeD]-Piperidide; lactam N-11) | 100 to 500 |
| CC[C@H](C)[C@@H]1NC(=O)[C@H](CC(C)C)N(C)C(=O)C[C@@H](C(=O)N2CCCCC2)N(C)C(=O)[C@H](C2CCCC2)N(C)C(=O)C2(CCCC2)NC(=O)[C@@H]2CCCN2C(=O)[C@H](CCc2ccc(C(F)(F)F)c(Cl)c2)NC(=O)CN(C)C(=O)[C@H](Cc2ccc(F)cc2)N(C)C(=O)[C@@H]2CCN2C(=O)[C@H](C)N(C)C1=O [Compound 388] ([NMeL]I[NMeA][Aze][NMePhe(4-F)][Sar][hPhe(3-Cl-4-CF3)]P[Ac5c][NMeGly(cPent)][NMeD]-Piperidide; lactam N-11) | 20 to 50 |
| CC[C@H](C)[C@@H]1NC(=O)[C@H](CCOC)N(C)C(=O)C[C@@H](C(=O)N2CCCCC2)N(C)C(=O)[C@H](C(C)C)N(C)C(=O)C2(CCCC2)NC(=O)[C@@H]2CCCN2C(=O)[C@H](CCc2ccc(C(F)(F)F)c(Cl)c2)NC(=O)CN(C)C(=O)[C@H](CC2CCCCC2)N(C)C(=O)[C@@H]2CCN2C(=O)[C@H](C)N(C)C1=O [Compound 397] ([NMehSer](Me)I[NMeA][Aze][NMeCha][Sar][hPhe(3-Cl-4-CF3)]P[Ac5c][NMeV][NMeD]-Piperidide; lactam N-11) | 100 to 500 |
| CCCOC[C@H]1C(=O)N(C)CC(=O)N[C@@H](CCc2ccc(C(F)(F)F)c(F)c2)C(=O)N2CCC[C@H]2C(=O)NC2(CCCC2)C(=O)N(C)[C@@H]([C@@H](C)CC)C(=O)N(C)[C@H](C(=O)N2C3CCC2COC3)CC(=O)N(C)[C@@H](CC(C)C)C(=O)N[C@@H]([C@@H](C)CC)C(=O)N(C)[C@@H](C)C(=O)N2CC[C@H]2C(=O)N1C [Compound 408] ([NMeL]I[NMeA][Aze][NMeS](Propyl)[Sar][hPhe(3-F,4-CF3)]P[Ac5c][NMeI][NMeD]-{3Oxa8azabicyclo(3.2.1)octane}; lactam N-11) | 50 to 100 |
| CC[C@H](C)[C@@H]1NC(=O)[C@H](CC(C)C)N(C)C(=O)C[C@@H](C(=O)N2CCCCC2)N(C)C(=O)[C@H]([C@@H](C)CC)N(C)C(=O)C2(CCCC2)NC(=O)[C@@H]2CCCN2C(=O)[C@H](CCc2ccc(C(F)(F)F)c(F)c2)NC(=O)CN(C)C(=O)[C@H](CC2CCCCC2)N(C)C(=O)[C@@H]2CCN2C(=O)[C@H](C)N(C)C1=O [Compound 409] ([NMeL]I[NMeA][Aze][NMeCha][Sar][hPhe(3-F,4-CF3)]P[Ac5c][NMeI][NMeD]-Piperidide; lactam N-11) | 50 to 100 |
| CC[C@H](C)[C@@H]1NC(=O)[C@H](CC(C)C)N(C)C(=O)C[C@@H](C)NC(=O)[C@H](C(C)C)N(C)C(=O)C2(CCCC2)NC(=O)[C@@H]2CCCN2C(=O)[C@H](CCc2ccc(C(F)(F)F)c(Cl)c2)NC(=O)CN(C)C(=O)[C@H](CC2CCCCC2)N(C)C(=O)[C@@H]2CCN2C(=O)[C@@H]2CCCCN2C1=O [Compound 416] (cyclo([Ac5c][NMeV][d(β3hA)][NMeL]I[Pip][Aze][NMeCha][Sar][hPhe(3-Cl-4-CF3)]P)) | 100 to 500 |
| CC[C@H](C)[C@@H]1NC(=O)[C@H](CC(C)C)N(C)C(=O)C[C@@H](C(=O)N2CCCCC2)N(C)C(=O)[C@H](C2CCCCC2)N(C)C(=O)C2(CCCC2)NC(=O)[C@@H]2C[C@H](c3ccccc3)CN2C(=O)[C@H](CCc2ccc(C(F)(F)F)c(Cl)c2)NC(=O)CN(C)C(=O)[C@H](CC2CCCCC2)N(C)C(=O)CN(C)C(=O)CN(C)C1=O [Compound 428] ([NMeL]I[Sar][Sar][NMeCha][Sar][hPhe(3-Cl-4-CF3)][Pro(cis-4-Ph)][Ac5c][NMeChg][NMeD]-Piperidide; lactam N-11) | 100 to 500 |
